SMILES strings stand for the structures.

Assay [1] relates to Cabbage Looper (Trichoplusia ni). Kind of assay: Bioassay on Cabbage Looper (CL), 128-well diet tray assay. It is filed as in vivo. As to conditions: for pest or weed control at 50 µg/cm2: Cabbage Looper, Table ABC, read-out: CL rating; for mortality at 0.05 µg/cm2 / mortality at 0.5 µg/cm2 / mortality at 5 µg/cm2: 168 h, second instar larvae, five to seven days, read-out: CL Percent control (or mortality); for mortality at 0.05 µg/cm2: 0.05 μg/cm^2 on artificial diet; for mortality at 0.5 µg/cm2: 0.5 μg/cm^2 on artificial diet; for mortality at 5 µg/cm2: 5 μg/cm^2 on artificial diet. The essentials: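 Second-instar larvae, one to five per well, placed on artificial diet surface-treated with 50 μg/cm^2 compound in acetone-water, eight wells per compound. Held 5-7 days at 25° C, 14:10 light-dark; percent mortality per well averaged across wells.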

For assay [2], the system named is Beet Armyworm (Spodoptera exigua). Kind of assay: Bioassay on Beet Armyworm (BAW), 128-well diet tray assay. It is filed as in vivo. As to conditions: for pest or weed control at 50 µg/cm2: Beet Armyworm, Table ABC, read-out: BAW rating; for mortality at 0.05 µg/cm2 / mortality at 0.5 µg/cm2 / mortality at 5 µg/cm2: 168 h, second instar larvae, five to seven days, read-out: BAW Percent control (or mortality); for mortality at 0.05 µg/cm2: 0.05 μg/cm^2 on artificial diet; for mortality at 0.5 µg/cm2: 0.5 μg/cm^2 on artificial diet; for mortality at 5 µg/cm2: 5 μg/cm^2 on artificial diet. In outline:
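Second-instar larvae (one to five per well) placed on artificial diet surface-treated with 50 μg/cm^2 test molecule in 90:10 acetone-water, dried, eight wells per molecule. Held at 25° C, 14:10 light-dark, five to seven days; percent mortality recorded per well and averaged across the eight wells.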

Consider `C[C@@H](NC(=O)c1ccc(/C(F)=C/C(c2cc(Cl)c(Cl)c(Cl)c2)C(F)(F)F)cc1C(F)(F)F)C(=S)NCC(F)(F)F` (stereo partly drawn) [PF96, 4-((2)-1,4,4,4-Tetrafluoro-3-(3,4,5-trichlorophenyl)but-1-en-1-yl)-N—((R)-1-thioxo-1-((2,2,2-trifluoroethyl)amino)propan-2-yl)-2-(trifluoromethyl)benzamide], for which the pest or weed control at 50 µg/cm2 in assay [1] and in assay [2] was 50 to 100% throughout.
`CN(CC(F)(F)F)C(=O)C1(NC(=O)c2ccc(/C(F)=C/C(c3cc(Cl)c(Cl)c(Cl)c3)C(F)(F)F)cc2C(F)(F)F)CC1` (centres unmarked) [F96, (Z)—N-(1-(Methyl(2,2,2-trifluoroethyl)carbamoyl)cyclopropyl)-4-(1,4,4,4-tetrafluoro-3-(3,4,5-trichlorophenyl)but-1-en-1-yl)-2-(trifluoromethyl)benzamide]: the pest or weed control at 50 µg/cm2 in assay [1] and in assay [2] was 50 to 100% in each case.
On to `O=C(N[C@@H]1CON(CC(F)(F)F)C1=O)c1ccc(/C(F)=C/C(c2cc(Cl)c(Cl)c(C(F)F)c2)C(F)(F)F)cc1C(F)(F)F` (stereo partly drawn) [F199, 4-((Z)-3-(3,4-Dichloro-5-(difluoromethyl)phenyl)-1,4,4,4-tetrafluoro-but-1-enyl)-N—((R)-3-oxo-2-(2,2,2-trifluoroethyl)isoxazolidin-4-yl)-2-(trifluoromethyl)benzamide], for which the pest or weed control at 50 µg/cm2 in assay [1] and in assay [2] was 50 to 100% throughout.
Regarding `CC(C)CCNC(=O)C1(NC(=O)c2ccc(/C(F)=C/C(c3cc(Cl)c(Cl)c(Cl)c3)C(F)(F)F)cc2C(F)(F)F)CC1` (centres unmarked) [F91, (Z)—N-(1-(Isopentylcarbamoyl)cyclopropyl)-4-(1,4,4,4-tetrafluoro-3-(3,4,5-trichlorophenyl)but-1-en-1-yl)-2-(trifluoromethyl)benzamide], the pest or weed control at 50 µg/cm2 in assay [1] and in assay [2] was 50 to 100% in each case.
Regarding `C=Cc1cc(/C(F)=C/C(c2cc(Cl)c(Cl)c(Cl)c2)C(F)(F)F)ccc1C(=O)N[C@H](C)C(=O)NCC(F)(F)F` (stereo partly drawn) [F201, N—((R)-1-Oxo-1-((2,2,2-trifluoroethyl)amino)propan-2-yl)-4-((Z)-1,4,4,4-tetrafluoro-3-(3,4,5-trichlorophenyl)but-1-en-1-yl]-2-vinylbenzamide], the pest or weed control at 50 µg/cm2 in assay [1] and in assay [2] was 50 to 100% each time.
With `COc1ccc(C(/C=C(\F)c2ccc(C(=O)NCC(=O)NCC(F)(F)F)c(C(F)(F)F)c2)C(F)(F)F)cc1Cl` (centres unmarked) [F158, (Z)-4-(3-(3-Chloro-4-methoxyphenyl)-1,4,4,4-tetrafluorobut-1-en-1-yl)-N-(2-oxo-2-((2,2,2-trifluoroethyl)amino)ethyl)-2-(trifluoromethyl)benzamide], the pest or weed control at 50 µg/cm2 in assay [1] and in assay [2] was 50 to 100% in each case.
On to `C[C@@H](NC(=O)c1ccc(/C(F)=C/C(c2cc(Cl)c(Cl)c(Cl)c2)C(F)(F)F)cc1C(F)(F)F)C(=O)NCC(F)(F)F` (stereo partly drawn) [F2, N—((R)-1-Oxo-1-((2,2,2-trifluoroethyl)amino)propan-2-yl)-4-((Z)-1,4,4,4-tetrafluoro-3-(3,4,5-trichlorophenyl)but-1-en-1-yl)-2-(trifluoromethyl)benzamide], for which, in assay [1], the mortality (as a rule, the share of the test organisms that died) at 0.05 µg/cm2 is 100%; the mortality at 0.5 µg/cm2 came to 100%; the mortality at 5 µg/cm2 is 100%; the pest or weed control at 50 µg/cm2 fell in the range of 50 to 100%. Also, in assay [2], the mortality at 0.05 µg/cm2 worked out at 100%, the mortality at 0.5 µg/cm2 came to 100%, the mortality at 5 µg/cm2 was found to be 100% and the pest or weed control at 50 µg/cm2 was in the range of 50 to 100%.
Turning to `C[C@@H](NC(=O)c1ccc(/C(F)=C/C(c2ccc(Cl)c(OC(F)(F)F)c2)C(F)(F)F)cc1C(F)(F)F)C(=O)NCC(F)(F)F` (stereo partly drawn) [F183, 4-((Z)-3-(4-Chloro-3-(trifluoromethoxy)phenyl)-1,4,4,4-tetrafluorobut-1-en-1-yl)-N—((R)-1-oxo-1-((2,2,2-trifluoroethyl)amino)propan-2-yl)-2-(trifluoromethyl)benzamide], the pest or weed control at 50 µg/cm2 in assay [1] and in assay [2] was 50 to 100% in each case.
As to `C[C@@H](NC(=O)c1ccc(/C(F)=C/C(c2cc(F)c(Cl)c(C(F)(F)F)c2)C(F)(F)F)cc1C(F)(F)F)C(=O)NCC(F)(F)F` (stereo partly drawn) [F202, 4-((Z)-3-(4-Chloro-3-fluoro-5-(trifluoromethyl)phenyl)-1,4,4,4-tetrafluorobut-1-en-1-yl)-N—((R)-1-oxo-1-((2,2,2-trifluoroethyl)amino)propan-2-yl)-2-(trifluoromethyl)benzamide], the pest or weed control at 50 µg/cm2 in assay [1] and in assay [2] was 50 to 100% throughout.
For `O=C(N[C@@H]1CON(CC(F)(F)F)C1=O)c1ccc(/C(F)=C/C(c2cc(Cl)c(Cl)c(Br)c2)C(F)(F)F)cc1C(F)(F)F` (stereo partly drawn) [F197, 4-((Z)-3-(3-Bromo-4,5-dichlorophenyl)-1,4,4,4-tetrafluorobut-1-en-1-yl)-N—((R)-3-oxo-2-(2,2,2-trifluoroethyl)isoxazolidin-4-yl)-2-(trifluoromethyl)benzamide], the pest or weed control at 50 µg/cm2 in assay [1] and in assay [2] was 50 to 100% throughout.
Take `O=C(CNC(=O)c1ccc(/C(F)=C/C(c2ccc(Cl)c(Cl)c2)C(F)(F)F)cc1Br)NCC(F)(F)F` (centres unmarked) [F124, (Z)-2-Bromo-4-(3-(3,4-dichlorophenyl)-1,4,4,4-tetrafluorobut-1-en-1-yl)-N-(2-oxo-2-((2,2,2-trifluoroethyl)amino)ethyl)benzamide]: the pest or weed control at 50 µg/cm2 in assay [1] and in assay [2] was 50 to 100% throughout.
Turning to `C[C@@H](NC(=O)c1ccc(/C(F)=C/C(c2cc(Cl)c(Cl)c(Cl)c2)C(F)(F)F)cc1C(F)(F)F)C(=O)N(CC(F)(F)F)NC(=O)OC(C)(C)C` (stereo partly drawn) [F55, tert-Butyl 2-((2R)-2-(4-((Z)-1,4,4,4-tetrafluoro-3-(3,4,5-trichlorophenyl)but-1-en-1-yl)-2-(trifluoromethyl)benzamido)propanoyl)-2-(2,2,2-trifluoroethyl)hydrazinecarboxylate], the pest or weed control at 50 µg/cm2 in assay [1] and in assay [2] was 50 to 100% throughout.
`O=C(NC1(C(=O)NCC(F)(F)F)CC1)c1ccc(/C(F)=C/C(c2cc(Cl)cc(C(F)(F)F)c2)C(F)(F)F)cc1C(F)(F)F` (centres unmarked) [PF44]: the pest or weed control at 50 µg/cm2 in assay [1] and in assay [2] was 50 to 100% each time.
Regarding `C[C@@H](NC(=O)c1ccc(/C(F)=C/C(c2cc(Cl)c(Cl)c(CF)c2)C(F)(F)F)cc1C(F)(F)F)C(=O)NCC(F)(F)F` (some centres unmarked) [F194], the pest or weed control at 50 µg/cm2 in assay [1] and in assay [2] was 50 to 100% throughout.
On to `O=C(CNC(=O)c1ccc(/C(F)=C/C(c2cc(Cl)c(Cl)c(Cl)c2)C(F)(F)F)cc1C(F)(F)F)NCC(F)(F)F` (centres unmarked) [F1, (Z)—N-(2-oxo-2-((2,2,2-trifluoroethyl)amino)ethyl)-4-(1,4,4,4-tetrafluoro-3-(3,4,5-trichlorophenyl)but-1-en-1-yl)-2-(trifluoromethyl)benzamide], for which, in assay [1], the mortality at 0.05 µg/cm2 amounted to 100%, the mortality at 0.5 µg/cm2 amounted to 100%, the mortality at 5 µg/cm2 amounted to 100% and the pest or weed control at 50 µg/cm2 lay within 50 to 100%. For the same compound, in assay [2], the mortality at 0.05 µg/cm2 worked out at 100%, the mortality at 0.5 µg/cm2 is 100%, the mortality at 5 µg/cm2 was 100% and the pest or weed control at 50 µg/cm2 is 50 to 100%.
Regarding `CN(CC(F)(F)F)C(=O)CNC(=O)c1ccc(/C(F)=C/C(c2cc(Cl)cc(C(F)(F)F)c2)C(F)(F)F)cc1C(F)(F)F` (centres unmarked) [PF41, (Z)-4-(3-(3-Chloro-5-(trifluoromethyl)phenyl)-1,4,4,4-tetrafluorobut-1-en-1-yl)-N-(2-(methyl(2,2,2-trifluoroethyl)amino)-2-oxoethyl)-2-(trifluoromethyl)benzamide], the pest or weed control at 50 µg/cm2 in assay [1] and in assay [2] was 50 to 100% each time.
With `C[C@@H](NC(=O)c1ccc(/C(F)=C/C(c2cc(Cl)cc(Br)c2)C(F)(F)F)cc1C(F)(F)F)C(=O)NCC(F)(F)F` (some centres unmarked) [F109], the pest or weed control at 50 µg/cm2 in assay [1] and in assay [2] was 50 to 100% each time.
In the case of `C[C@@H](NC(=O)c1ccc(/C(F)=C/C(c2cc(Cl)c(Cl)c(Cl)c2)C(F)(F)F)cc1Cl)C(=O)N(C)CC(F)(F)F` (stereo partly drawn) [F49, 2-Chloro-N—((R)-1-(methyl(2,2,2-trifluoroethyl)amino)-1-oxopropan-2-yl)-4-((Z)-1,4,4,4-tetrafluoro-3-(3,4,5-trichlorophenyl)but-1-en-1-yl)benzamide], the pest or weed control at 50 µg/cm2 in assay [1] and in assay [2] was 50 to 100% throughout.
Take `C[C@@H](NC(=O)c1ccc(/C(F)=C/C(c2cc(Cl)c(Cl)c(Cl)c2)C(F)(F)F)cc1I)C(=O)NCC(F)(F)F` (stereo partly drawn) [F67, 2-Iodo-N—((R)-1-oxo-1-((2,2,2-trifluoroethyl)amino)propan-2-yl)-4-((Z)-1,4,4,4-tetrafluoro-3-(3,4,5-trichlorophenyl)but-1-en-1-yl)benzamide]: in assay [1], the mortality at 0.05 µg/cm2 worked out at 100%, the mortality at 0.5 µg/cm2 was 100%, the mortality at 5 µg/cm2 was found to be 100% and the pest or weed control at 50 µg/cm2 is 50 to 100%. Also, in assay [2], the mortality at 0.05 µg/cm2 came out at 100%, the mortality at 0.5 µg/cm2 stood at 100%, the mortality at 5 µg/cm2 was found to be 100% and the pest or weed control at 50 µg/cm2 was in the range of 50 to 100%.

The values are drawn from patent US10251394B2, “Molecules having pesticidal utility, and intermediates, compositions, and processes, related thereto” (Dow AgroSciences LLC, priority 2016, dated 2019).
